Broadly, the IC50 is the concentration at which inhibition is half-maximal.

The text below walks through data of patent publication US20030162792A1, “Indole derivatives useful for the treatment of CNS disorders” (H. Lundbeck A/S, priority 2000, published 2003).

Counter-ions that a name gives are not always drawn. Like-named read-outs stand apart in the source and are kept apart here.

The target of experiment [1] is T1, human cloned dopamine D4.2 receptors expressed in CHO-cells (Homo sapiens, UniProt P21917, DEL265-296).
T1 construct: expressed in transfected cells; host or cells: CHO cells
T1 sequence (P21917 with tags, fused parts or gaps DEL265-296): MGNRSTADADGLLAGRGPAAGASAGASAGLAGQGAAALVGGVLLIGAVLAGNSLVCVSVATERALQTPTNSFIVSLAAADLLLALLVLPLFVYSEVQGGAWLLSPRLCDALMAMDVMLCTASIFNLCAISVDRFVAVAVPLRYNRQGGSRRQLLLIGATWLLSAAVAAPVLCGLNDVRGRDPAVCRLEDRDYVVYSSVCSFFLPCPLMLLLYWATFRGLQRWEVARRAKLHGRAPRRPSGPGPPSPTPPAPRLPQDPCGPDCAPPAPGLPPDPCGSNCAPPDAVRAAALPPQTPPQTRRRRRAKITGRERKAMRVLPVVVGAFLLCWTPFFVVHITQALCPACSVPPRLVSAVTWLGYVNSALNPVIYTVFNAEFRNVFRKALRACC
The experiment can be described thus: Inhibition of the binding of [3H]YM-09151-2 to human dopamine D4.2 receptors. The conditions noted are these: for D4-bind. % inhibition of binding: at 50 nM. An excerpt:
Method modified from NEN Life Science Products, Inc., technical data certificate PC2533-10/96.

A further experiment has as its target T2, 5-HT2A receptors (Rattus norvegicus, UniProt P14842).
T2 construct: membranes from rat brain (cortex) in vitro; from tissue; host or cells: rat brain cortex membranes
Put plainly: Inhibition of the binding of [3H]Ketanserin to 5-HT2A receptors. As for the experimental part: Inhibition of the Binding of [^3H]Ketanserin to 5-HT2A Receptors
The compounds were tested with respect to their affinity for 5-HT2A receptors by determining their ability to inhibit the binding of [^3H]Ketanserin (0.50 nM) to membranes from rat brain (cortex) in vitro. Method described in Sanchez et al. Drug Dev. Res. 1991, 22, 239-250.

The next experiment addresses T3, D4 receptor (Homo sapiens, UniProt P21917).
T3 sequence (P21917 1-419): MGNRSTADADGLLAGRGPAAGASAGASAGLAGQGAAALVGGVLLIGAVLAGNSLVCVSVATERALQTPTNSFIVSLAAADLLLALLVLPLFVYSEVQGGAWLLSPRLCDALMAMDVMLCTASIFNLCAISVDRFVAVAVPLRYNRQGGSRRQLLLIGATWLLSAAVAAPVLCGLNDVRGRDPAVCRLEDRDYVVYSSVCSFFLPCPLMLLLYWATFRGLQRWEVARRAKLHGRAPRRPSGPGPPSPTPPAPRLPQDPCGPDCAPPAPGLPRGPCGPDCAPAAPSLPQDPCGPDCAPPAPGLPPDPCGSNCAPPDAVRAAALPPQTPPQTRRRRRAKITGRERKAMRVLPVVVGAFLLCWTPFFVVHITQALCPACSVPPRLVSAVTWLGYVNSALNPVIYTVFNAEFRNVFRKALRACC
The following applies: various in vitro efficacy assays; cited from earlier work.

Where [2] appears, read: [3H]Ketanserin 0.50 nM, membranes from rat brain (cortex), read-out: 5-HT2A-bind. IC50.

T2 sequence (P14842 whole entry): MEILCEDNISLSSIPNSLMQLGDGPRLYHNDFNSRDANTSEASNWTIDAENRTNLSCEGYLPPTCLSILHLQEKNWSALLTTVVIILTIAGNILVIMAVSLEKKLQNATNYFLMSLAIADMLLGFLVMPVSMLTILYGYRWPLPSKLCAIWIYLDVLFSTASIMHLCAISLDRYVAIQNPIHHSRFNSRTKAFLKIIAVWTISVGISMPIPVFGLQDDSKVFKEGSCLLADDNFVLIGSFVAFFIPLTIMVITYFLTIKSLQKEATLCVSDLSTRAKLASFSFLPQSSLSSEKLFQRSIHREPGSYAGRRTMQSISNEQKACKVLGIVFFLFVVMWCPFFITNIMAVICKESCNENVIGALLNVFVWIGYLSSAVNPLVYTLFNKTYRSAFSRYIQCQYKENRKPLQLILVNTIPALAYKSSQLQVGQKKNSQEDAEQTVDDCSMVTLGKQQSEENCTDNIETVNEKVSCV

As for `O=S1(=O)c2cccc3cccc(c23)N1CCCN1CCN(c2ccc3[nH]ccc3c2)CC1` [Compound 1a, 2-{3-[4-(1H-Indol-5-yl)piperazin-1-yl]propan-1-yl}-2H-naphtho[1,8-cd]isothiazole 1,1-dioxide, Hydrochloride], the half-inhibitory concentration (IC50) in experiment [1] ([3H]YM-09151-2 0.06 nM, membranes of CHO cells, read-out: D4-bind. IC50) turned out to be 1.9 nM; at 5-HT2A receptors (setting [2]), 0.79 nM.
As for `Cl.O=S1(=O)c2cccc3cccc(c23)N1CCCN1CCN(c2ccc3cc[nH]c3c2)CC1` [Compound 1b, 2-{3-[4-(1H-Indol-6-yl)piperazin-1-yl]propan-1-yl}-2H-naphtho[1,8-cd]isothiazole 1,1-dioxide, Hydrochloride], the “D4-bind. % inhibition of binding” value in experiment [1] ([3H]YM-09151-2 0.06 nM) was 91% (50 nM). On 5-HT2A receptors (setting [2]), the half-inhibitory concentration (IC50) came out at 1.8 nM.
Regarding `O=S1(=O)c2cccc3cccc(c23)N1CCCN1CC=C(c2ccc3[nH]ccc3c2)CC1` [Compound 1c, 2-{3-[4-(1H-Indol-5-yl)-3,6-dihydro-2H-pyridin-1-yl]propan-1-yl}-2H-naphtho[1,8-cd]isothiazole 1,1-dioxide, Hydrochloride], the IC50 in experiment [1] was 0.73 nM; on 5-HT2A receptors, 0.48 nM.
Turning to `O=S1(=O)c2cccc3cccc(c23)N1CCCN1CCC(c2ccc3[nH]ccc3c2)CC1` [Compound 1d, Hydrochloride], the “D4-bind. % inhibition of binding” value in experiment [1] ([3H]YM-09151-2 0.06 nM) is given as 83% (50 nM). At 5-HT2A receptors (setting [2]), the IC50 was determined as 9.2 nM.
In the case of `CC(C)Oc1cccnc1N(C)C1CCN(Cc2ccccc2)CC1` [Compound U-101958], the “Functional activity at D4 receptor (literature)” value at D4 receptor is “partial D4 receptor agonists”.
